Numbers after ± are expanded uncertainties.
Settings: Liquid

C1CCCC1 [cyclopentane]
Settings	viscosity [mPa·s]
253.15 K	0.7268 ± 0.012
258.15 K	0.6786 ± 0.011
263.15 K	0.6347 ± 0.011
268.15 K	0.593 ± 0.01
273.15 K	0.5567 ± 0.0098
278.15 K	0.5224 ± 0.0093
283.15 K	0.4922 ± 0.0089
288.15 K	0.4646 ± 0.0085
293.15 K	0.4382 ± 0.0081
298.15 K	0.4148 ± 0.0078
303.15 K	0.3923 ± 0.0075
308.15 K	0.3714 ± 0.0072
313.15 K	0.3521 ± 0.0069
318.15 K	0.335 ± 0.0067
323.15 K	0.319 ± 0.0065
328.15 K	0.3048 ± 0.0063
333.15 K	0.2912 ± 0.0061
338.15 K	0.2793 ± 0.0059
343.15 K	0.269 ± 0.0058
348.15 K	0.259 ± 0.0056
353.15 K	0.2502 ± 0.0055

CCC(C)C [2-methylbutane]
Settings	viscosity [mPa·s]
253.15 K	0.3893 ± 0.0075
258.15 K	0.3661 ± 0.0072
263.15 K	0.3439 ± 0.0069
268.15 K	0.3201 ± 0.0065
273.15 K	0.3023 ± 0.0063
278.15 K	0.2859 ± 0.0061
283.15 K	0.2703 ± 0.0058
288.15 K	0.2547 ± 0.0056
293.15 K	0.2399 ± 0.0054
298.15 K	0.2289 ± 0.0052
303.15 K	0.2144 ± 0.005
308.15 K	0.2023 ± 0.0049
313.15 K	0.191 ± 0.0047
318.15 K	0.1813 ± 0.0046
323.15 K	0.1724 ± 0.0044
328.15 K	0.1611 ± 0.0043
333.15 K	0.1543 ± 0.0042
338.15 K	0.148 ± 0.0041
343.15 K	0.1411 ± 0.004
348.15 K	0.1332 ± 0.0039
353.15 K	0.1287 ± 0.0038

From the NIST ThermoML archive (doi:10.1021/je0202174)
